Biological target: KCNQ2 (Homo sapiens, UniProt O43526, DEL417-446)
Assay: Perforated-patch voltage clamp of HEK 293E cells stably expressing hKCNQ2
Format: cell-based
Parameters: Full-length hKCNQ2 cDNAs were amplified from adult human brain cDNA; expressed in transfected cells; host or cells: 293 EBNA (HEK 293E) cells, episomal plasmid pm3AR-hKCNQ2-1, hygromycin B selection
Details: FIG. 5 (0.3 uM)
Procedure: To determine whether the hygromycin B resistant HEK 293E cells express functional hKCNQ2 channels, the presence of potassium currents was evaluated using the perforated-patch voltage-clamp technique. Briefly, cells growing on plastic Petri dishes or poly-D-lysine-coated glass coverslips in DMEM (with 10% FBS and 250 ug/ml hygromycin B) at 37° C. and 5% CO2 were removed from the incubator and allowed to reach room temperature. Growth medium was replaced with a bathing solution containing, in mM: 140 NaCl, 3 KC1, 2.5 CaCl2, 1 MgCl2, 10 HEPES, 10 dextrose, pH adjusted to 7.2-7.4 with NaOH and osmolarity adjusted to 305-310 mosm with water. […]
Stock solution(s) of test compound(s) was (were) prepared immediately before use. […] Generally, the stock solution is about 0.1 mM to about 100 mM in DMSO and the aliquot is about 5 to about 100 uL, but it is understood that the concentration and volumes are not limited to these ranges for one skilled in the art can readily determine the appropriate concentrations and volumes dependening on the activity of the compound in the assay and the sensitivity of detection. […]

Block of hKCNQ2 current: reversibly blocks hKCNQ2
SMILES: O=C1c2ccccc2C(Cc2ccncc2)(Cc2ccncc2)c2ccccc21 [XE991, 10,10-bis(4-pyridinylmethyl)-9(10H)-anthracenone]
